{
  "source": "patent US20020177625A1",
  "about": "“Class of glaucoma drugs to enhance aqueous humor outflow and lower intra-ocular pressure” (The Regents of the University of California, a California …, priority 2001, published 2002)",
  "key": {"TM cells": {"test_system": "TM cells", "test": "Intracellular [Cl] of TM cells", "format": "cell-based", "settings": "niflumic acid 100 μM"}, "human TM cells": {"test_system": "human TM cells", "test": "Intracellular volume of human TM cells (14C-urea/14C-sucrose water space or COULTER COUNTER electronic cell sizing), isotonic medium", "format": "cell-based", "settings": "human TM cells", "method": "The intracellular volume of human and bovine TM cells was evaluated by two methods: 1) radioisotopic evaluation of TM monolayer intracellular water space using ^14C-urea and ^14C-sucrose as markers of total and extracellular space, respectively; and 2) electronic cell sizing of suspended TM cells, using a COULTER COUNTER™ assay (Coulter Electronics, Ltd., Hialeah, Fla.). Details of these methods have been described previously by O'Donnell (O'Donnell, M. E., supra, 1993) the entirety of which is incorporated herein by reference.\nBy the first method, cell monolayers were preequilibrated for 30 minutes in Hepes MEM at 37° C. in an air atmosphere, then incubated for 20 minutes in Hepes MEM containing 0 or 10 μM bumetamide, ethacrynic acid, or other agents to be tested, and finally incubated for 10 minutes in the same medium containing either ^14C-urea or ^14C-sucrose (both at 1 μCi/ml). Monolayers were then rinsed with isotonic ice-cold MgCl2 and radioactivity of SDS extracts determined by liquid scintillation. Specific activities (counts per minute/ml) of ^14C-urea and ^14C-sucrose in the assay medium were determined and used to calculate water space associated with trapped radioactivity (expressed as μl/mg protein. Intracellular volume was calculated as the difference between the water space determined for ^14C-urea (a marker for intracellular plus trapped extracellular space) and ^14C-sucrose (a marker for trapped extracellular space).\nBy the second method, TM cells were trypsinized briefly in Ca-free medium, then rinsed with medium containing trypsin inhibitor and suspended in Hepes MEM. Mean cell volumes were then analyzed by electronic cell sizing on a COULTER COUNTER™ radioassay (Model ZM) with channelizer (C256), using at least 50,000 cells per data point and an orifice diameter of 140 μm. Aliquots of suspended cells were diluted into Hepes MEM containing the tonicity and/or agents to be evaluated. Mean cell volumes of each suspension aliquot were followed over time, starting at 1 minute after addition of cells to the assay media. Cell suspensions were maintained at 37° C. throughout the assay period. Absolute volumes (picoliters/cell) were calculated from distribution curves of cell diameter, using a standard curve generated by polystyrene latex beads of known diameter.\nHuman TM cells were exposed to isotonic medium ±niflumic acid (10 or 100 μM)±10 μM bumetamide. Cell volume was assessed by COULTER COUNTER™ electronic cell sizing over the time course shown, using TM cells in suspension. Note that niflumic acid (NA) alone decreases volume of the TM cells and that exposing the cells to NA plus bumetamide causes a further decrease in TM cell volume. Data represent means of two experiments (all conditions shown tested in both experiments)."}},
  "data": [
    {"smiles": "O=C(O)c1cccnc1Nc1cccc(C(F)(F)F)c1", "note": "[niflumic acid]", "values": [
      {"measurement": "intracellular [Cl] of the TM cells", "setting": "TM cells", "value": "significantly reduced"},
      {"measurement": "TM cell volume in isotonic medium (resting volume)", "setting": "human TM cells; niflumic acid 10 μM", "value": "decreased"},
      {"measurement": "TM cell volume in isotonic medium (resting volume)", "setting": "human TM cells; niflumic acid 100 μM", "value": "decreased"}
    ]}
  ]
}
